Experimental data: US9730914B2, “3,5-diaminopyrazole kinase inhibitors” (Axikin Pharmaceuticals, Inc., priority 2014, dated 2017)

Experiments:
[1] = target: T1, kinase domain protein of RC kinase (RCK) (Homo sapiens, UniProt Q56UN5); experiment: Kinase competition binding assay (Kd, qPCR readout), RC kinase; settings: Kd class, read-out: RCK Activity Level
T1 construct: made in house; host or cells: E. coli BL21-derived host (T7 phage) or HEK-293
T1 sequence (Q56UN5 1061-1324 limits assumed): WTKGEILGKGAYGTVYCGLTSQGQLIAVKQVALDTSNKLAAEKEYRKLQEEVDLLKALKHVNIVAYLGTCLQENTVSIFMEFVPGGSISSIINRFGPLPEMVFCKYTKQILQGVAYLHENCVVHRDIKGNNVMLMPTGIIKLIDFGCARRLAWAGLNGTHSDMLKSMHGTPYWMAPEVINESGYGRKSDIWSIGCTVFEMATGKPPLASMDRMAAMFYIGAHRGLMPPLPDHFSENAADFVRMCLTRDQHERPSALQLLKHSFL
Protocol: (§1) For most assays, kinase-tagged T7 phage strains were prepared in an E. coli host derived from the BL21 strain. E. coli were grown to log-phase and infected with T7 phage and incubated with shaking at 32° C. until lysis. The lysates were centrifuged and filtered to remove cell debris. The remaining kinases were produced in HEK-293 cells and subsequently tagged with DNA for quantitative PCR (qPCR) detection.
(§2) Streptavidin-coated magnetic beads were treated with biotinylated small molecule ligands for 30 minutes at room temperature to generate affinity resins for kinase assays. The liganded beads were blocked with excess biotin and washed with blocking buffer (SeaBlock (Pierce), 1% BSA, 0.05% Tween 20, 1 mM DTT) to remove unbound ligand and to reduce nonspecific binding. Binding reactions were assembled by combining kinases, liganded affinity beads, and test compounds in 1× binding buffer (20% SeaBlock, 0.17×PBS, 0.05% Tween 20, 6 mM DTT). All reactions were performed in polystyrene 96-well plates in a final volume of 0.135 mL. The assay plates were incubated at room temperature with shaking for 1 hour and the affinity beads were washed with wash buffer (1×PBS, 0.05% Tween 20). The beads were then re-suspended in elution buffer (1×PBS, 0.05% Tween 20, 0.5 μM non-biotinylated affinity ligand) and incubated at room temperature with shaking for 30 minutes. The kinase concentration in the eluates was measured by qPCR.
(§3) An 11-point 3-fold serial dilution of each test compound was prepared in 100% DMSO at 100× final test concentration and subsequently diluted to 1× in the assay (final DMSO concentration=1%). Most Kd values were determined using a compound top concentration=30,000 nM. If the initial Kd determined was <0.5 nM, (the lowest concentration tested), the measurement was repeated with a serial dilution starting at a lower top concentration. A more detailed description of this assay may be found in Fabian, M. A. et al. Nat. Biotechnol. 2005, 23, 329-336, which is incorporated herein in its entirety.
(§4) The biological results of inhibition of the kinase domain protein of RC kinase (RCK) and JAK2 and JAK3 are summarized in Tables 2 and 3, wherein A represents a Kd of <50 nM; B represents 50 nM<Kd<100 nM; C represents 100 nM<Kd<1000 nM; and D represents a Kd>1000 nM.

JAK2 = target: T2, JAK2 (Homo sapiens, UniProt O60674); experiment: Kinase competition binding assay (Kd, qPCR readout), JAK2; settings: for Kd: Kd class, JAK2, read-out: JAK2 Activity Level; for RCK:JAK2 selectivity ratio: ratio Kd (JAK2): Kd(RCK)
T2 construct: made in house; host or cells: E. coli BL21-derived host (T7 phage) or HEK-293
T2 sequence (O60674 840-1132 limits assumed): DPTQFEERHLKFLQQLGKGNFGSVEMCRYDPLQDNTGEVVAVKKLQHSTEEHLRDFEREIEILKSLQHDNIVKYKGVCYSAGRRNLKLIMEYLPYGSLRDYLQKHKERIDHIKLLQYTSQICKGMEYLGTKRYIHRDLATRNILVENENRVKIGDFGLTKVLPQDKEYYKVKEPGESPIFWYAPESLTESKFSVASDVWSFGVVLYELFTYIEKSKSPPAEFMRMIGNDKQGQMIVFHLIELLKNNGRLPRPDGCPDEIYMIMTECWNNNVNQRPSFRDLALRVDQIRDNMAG
Protocol: as §1, §2, §3, §4
Additionally, RCK:JAK2 selectivity, as measured by the ratio Kd (JAK2): Kd(RCK) is represented as follows: A represents Kd (JAK2): Kd (RCK)>100; B represents 10<Kd(JAK2): Kd (RCK)<100; C represents 1<Kd (JAK2): Kd (RCK)<10; and D represents Kd(JAK2): Kd (RCK)<1.

JAK3 = target: T3, JAK3 (Homo sapiens, UniProt P52333); experiment: Kinase competition binding assay (Kd, qPCR readout), JAK3; settings: for Kd: Kd class, JAK3, read-out: JAK3 Activity Level; for RCK:JAK3 selectivity ratio: ratio Kd (JAK3): Kd (RCK)
T3 construct: made in house; host or cells: E. coli BL21-derived host (T7 phage) or HEK-293
T3 sequence (P52333 811-1124 limits assumed): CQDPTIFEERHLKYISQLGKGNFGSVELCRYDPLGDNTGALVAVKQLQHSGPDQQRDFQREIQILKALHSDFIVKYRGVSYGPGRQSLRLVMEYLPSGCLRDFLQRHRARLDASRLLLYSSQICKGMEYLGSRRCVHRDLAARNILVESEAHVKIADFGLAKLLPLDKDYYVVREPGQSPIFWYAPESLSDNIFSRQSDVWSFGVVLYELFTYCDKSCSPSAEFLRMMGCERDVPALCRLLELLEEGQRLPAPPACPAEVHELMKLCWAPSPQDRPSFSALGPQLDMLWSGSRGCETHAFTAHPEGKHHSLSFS
Protocol: as §1, §2, §3, §4
Similarly, RCK:JAK3 selectivity, as measured by the ratio Kd (JAK3): Kd (RCK) is represented as follows: A represents Kd (JAK3): Kd (RCK)>100; B represents 10<Kd (JAK3): Kd (RCK)<100; C represents 1<Kd (JAK3): Kd (RCK)<10; and D represents Kd (JAK3): Kd(RCK)<1.

SMILES | Kd [1] [nM] | Kd (JAK2) [nM] | Kd (JAK3) [nM] | RCK:JAK2 selectivity ratio (JAK2) | RCK:JAK3 selectivity ratio (JAK3)
Cc1cc(CNc2[nH]nc(Nc3ccc(N4CCN(C(=O)N5CCOCC5)CC4)cc3)c2C(N)=O)cc(C)c1O [Compound 39, 5-((4-hydroxy-3,5-dimethylbenzyl)amino)-3-((4-(4-(morpholine-4-carbonyl)piperazin-1-yl)phenyl)amino)-1H-pyrazole-4-carboxamide] | 50 to 100 | < 50 | < 50 | B (B represents 10<Kd(JAK2): Kd (RCK)<100) | B (B represents 10<Kd (JAK3): Kd (RCK)<100)
Cc1cc(CNc2[nH]nc(Nc3ccc(N4C[C@@H](C)O[C@@H](C)C4)nc3)c2C(N)=O)cc(C)c1O [Compound 26] | 100 to 1000 | > 1000 | > 1000 | B (B represents 10<Kd(JAK2): Kd (RCK)<100) | B (B represents 10<Kd (JAK3): Kd (RCK)<100)
Cc1cc(CNc2[nH]nc(Nc3ccc(N4CCOCC4)nc3)c2C(N)=O)cc(C)c1O [Compound 7, 5-((4-hydroxy-3,5-dimethylbenzyl)amino)-3-((6-morpholinopyridin-3-yl)amino)-1H-pyrazole-4-carboxamide] | 50 to 100 | 100 to 1000 | > 1000 | C (C represents 1<Kd (JAK2): Kd (RCK)<10) | B (B represents 10<Kd (JAK3): Kd (RCK)<100)
Cc1cc(Nc2n[nH]c(NCc3ccc(O)cc3)c2C(N)=O)ccc1N1CCN(C)CC1 [reference compound] | < 50 | < 50 | < 50 | C (C represents 1<Kd (JAK2): Kd (RCK)<10) | C (C represents 1<Kd (JAK3): Kd (RCK)<10)
Cc1cc(CNc2[nH]nc(Nc3ccc(N4CCN(C)CC4)cc3)c2C(N)=O)cc(C)c1O [Compound 10, 5-((4-hydroxy-3,5-dimethylbenzyl)amino)-3-((4-(4-methylpiperazin-1-yl)phenyl)amino)-1H-pyrazole-4-carboxamide] | 50 to 100 | > 1000 | > 1000 | B (B represents 10<Kd(JAK2): Kd (RCK)<100) | A (A represents Kd (JAK3): Kd (RCK)>100)
NC(=O)c1c(Nc2ccc(-c3ccccc3)cc2)n[nH]c1NCc1ccc(O)cc1 [reference compound] | 50 to 100 | < 50 | 50 to 100 | D (D represents Kd(JAK2): Kd (RCK)<1) | C (C represents 1<Kd (JAK3): Kd (RCK)<10)
Cc1cc(CNc2[nH]nc(Nc3ccc(N4CCN(C(=O)N5CCCC5)CC4)cc3)c2C(N)=O)cc(C)c1O [Compound 24, 5-((4-hydroxy-3,5-dimethylbenzyl)amino)-3-((4-(4-(pyrrolidine-1-carbonyl)piperazin-1-yl)phenyl)amino)-1H-pyrazole-4-carboxamide] | < 50 | > 1000 | > 1000 | B (B represents 10<Kd(JAK2): Kd (RCK)<100) | A (A represents Kd (JAK3): Kd (RCK)>100)

More lines, main results first:

Kd [1] [nM] | Kd (JAK2) [nM] | Kd (JAK3) [nM] | SMILES | RCK:JAK2 selectivity ratio (JAK2) | RCK:JAK3 selectivity ratio (JAK3)
< 50 | < 50 | < 50 | NC(=O)c1c(Nc2ccc(N3CCN(C(=O)N4CCOCC4)CC3)cc2)n[nH]c1NCc1ccc(O)cc1 [reference compound] | D (D represents Kd(JAK2): Kd (RCK)<1) | C (C represents 1<Kd (JAK3): Kd (RCK)<10)
100 to 1000 | > 1000 | > 1000 | COc1cccc(C(=O)Nc2ccc(Nc3n[nH]c(NCc4cc(C)c(O)c(C)c4)c3C(N)=O)cc2)c1 [Compound 56, 5-((4-hydroxy-3,5-dimethylbenzyl)amino)-3-((4-(3-methoxybenzamido)phenyl)amino)-1H-pyrazole-4-carboxamide] | B (B represents 10<Kd(JAK2): Kd (RCK)<100) | A (A represents Kd (JAK3): Kd (RCK)>100)
< 50 | < 50 | < 50 | NC(=O)c1c(Nc2ccc(-c3cnco3)cc2)n[nH]c1NCc1ccc(O)cc1 [reference compound] | C (C represents 1<Kd (JAK2): Kd (RCK)<10) | C (C represents 1<Kd (JAK3): Kd (RCK)<10)
100 to 1000 | > 1000 | > 1000 | Cc1cc(CNc2[nH]nc(Nc3ccc(N4CCC(C)CC4)cc3)c2C(N)=O)cc(C)c1O [Compound 63, 5-((4-hydroxy-3,5-dimethylbenzyl)amino)-3-((4-(4-methylpiperidin-1-yl)phenyl)amino)-1H-pyrazole-4-carboxamide] | B (B represents 10<Kd(JAK2): Kd (RCK)<100) | B (B represents 10<Kd (JAK3): Kd (RCK)<100)
< 50 | < 50 | 50 to 100 | CC(C)(C)c1ccc(Nc2n[nH]c(NCc3ccc(O)cc3)c2C(N)=O)cc1 [reference compound] | D (D represents Kd(JAK2): Kd (RCK)<1) | C (C represents 1<Kd (JAK3): Kd (RCK)<10)
100 to 1000 | > 1000 | > 1000 | Cc1cc(CNc2[nH]nc(Nc3ccc(N4C[C@@H](C)O[C@@H](C)C4)cc3)c2C(N)=O)cc(C)c1O [Compound 4, 3-((4-(2,6-dimethylmorpholino)phenyl)amino)-5-((4-hydroxy-3,5-dimethylbenzyl)amino)-1H-pyrazole-4-carboxamide] | B (B represents 10<Kd(JAK2): Kd (RCK)<100) | B (B represents 10<Kd (JAK3): Kd (RCK)<100)
100 to 1000 | > 1000 | > 1000 | Cc1cc(CNc2[nH]nc(Nc3ccc(N(C)C)cc3)c2C(N)=O)cc(C)c1O [Compound 50, 3-((4-(dimethylamino)phenyl)amino)-5-((4-hydroxy-3,5-dimethylbenzyl)amino)-1H-pyrazole-4-carboxamide] | C (C represents 1<Kd (JAK2): Kd (RCK)<10) | C (C represents 1<Kd (JAK3): Kd (RCK)<10)
100 to 1000 | > 1000 | > 1000 | Cc1cc(CNc2[nH]nc(Nc3ccc(-c4cnco4)cc3)c2C(N)=O)cc(C)c1O [Compound 38, 5-((4-hydroxy-3,5-dimethylbenzyl)amino)-3-((4-(oxazol-5-yl)phenyl)amino)-1H-pyrazole-4-carboxamide] | A (A represents Kd (JAK2): Kd (RCK)>100) | A (A represents Kd (JAK3): Kd (RCK)>100)
50 to 100 | 100 to 1000 | 100 to 1000 | NC(=O)c1c(Nc2ccc(NC(=O)c3ccc(C(F)(F)F)cc3)cc2)n[nH]c1NCc1ccc(O)cc1 [reference compound] | C (C represents 1<Kd (JAK2): Kd (RCK)<10) | C (C represents 1<Kd (JAK3): Kd (RCK)<10)
50 to 100 | > 1000 | > 1000 | COc1ccc(C(=O)Nc2ccc(Nc3n[nH]c(NCc4cc(C)c(O)c(C)c4)c3C(N)=O)cc2)cc1 [Compound 57, 5-((4-hydroxy-3,5-dimethylbenzyl)amino)-3-((4-(4-methoxybenzamido)phenyl)amino)-1H-pyrazole-4-carboxamide] | A (A represents Kd (JAK2): Kd (RCK)>100) | A (A represents Kd (JAK3): Kd (RCK)>100)
< 50 | – | – | Cc1cc(Nc2n[nH]c(NCc3ccc(O)cc3)c2C(N)=O)ccc1N1CCOCC1 | – | –
